What was measured:
[1] = system: Human leukemia cells (HL-60); assay: Apoptosis of human leukemia cells; format: cell-based
Protocol: Human leukemia cells (HL-60) were grown in RPMI Medium 1640 supplemented with 10% (v/v) heat-inactivated FBS (56° C. for 30 min) at 37° C. in a humidified 95% air/5% CO2 atmosphere. Cells were seeded at a level of 2×10^5 cells/ml. Cells were allowed to attain a maximum density of 1.2×10^6 cells/ml before being passed by dilution into fresh medium to a concentration of 2×10^5 cells/ml. […]
For evaluation of apoptosis by flow cytometry, cells were fixed and permeabilized in 1% paraformaldehyde and ice-cold 70% ethanol. Digoxigenin-dUTP was incorporated at the 3′OH ends of the fragmented DNA in the presence of terminal deoxynucleotidyltranserase, and the cells were incubated with FITC-labeled anti-digoxigenin-dUTP and with propidium iodide. Green (apoptotic cells) and orange (total DNA) fluorescence were measured with a FACScan flow cytometer and analyzed with LYSIS II and CELLFIT programs. Data were analyzed by Student's t-test. P values were considered significant when <0.05. […]
Apoptosis of HL-60 cells was assessed by changes in cell morphology and by measurement of DNA nicks using the Apop Tag Kkt (Oncor, Gaithersburg, Md.). […] These features make apoptotic cells relatively easy to distinguish from necrotic cells. These changes are detected on cytospin preparations stained with Diff-Quick Stain Set. Apoptotic cells were enumerated in a total of about 300 cells by light microscopy.

kidney cell cultures = assay: Analysis of chromosomes (chromosomal aberrations in kidney); format: in vivo
Protocol: For metaphase chromosomes, kidney cell cultures were treated with colchicines (0.4 μg/ml) for 3-4 hours. The cells were then trypsinized and treated with hypotonic solution (0.075 M KCl) at 37° C. for 30 minutes. The cell suspensions were centrifuged and the pellets fixed in cold acetic acid:methanol (1:3) solution. Slides were prepared by standard air-drying method and stained with 2% Giemsa solution. The results scored by analyzing at least 200 well spread metaphases with 44±2 chromosomes for gaps, chromatid and chromosome breaks and exchanges, and association. Chromatid and chromosome aberrations were scored separately, and the total percentage was subjected to statistical analysis. Gaps were recorded but not included in the total frequency. Endoreduplication (endomitosis) was estimated from at least 500 cells/animal and expressed as a percentage.

[2] = Metabolism (organ and blood radioactivity) of [^3H]-HHT in P388 mice; format: in vivo; conditions: P388 mice, [^3H]-HHT 1 mg/kg
Protocol: Animals: Adult DBA/2J male mice, 6 to 8 weeks old. All animals weighed approximately 25 g when used in experiments. Each member of which received identical dosed (i.p.) of HHT.
Tumor: P388 leukemic cells induced in mice by inoculation with L1210 or P388 leukemic cells ([…]).
After P388 induced in mice 5 days, 1 mg/kg of [^3H]-HHT (100 μC/mg) was injected to mice. Volumes were 0.01 ml/g body weight. […] The key data of HHT in metabolism process are determined counts per minute (CPM) of [^3H]-HHT in organs. CPM is determined by liquid scintillation counting (LSC). The methods of LSC combined with radioactive of [^3H]-HHT can be determined using a tracer of HHT in organs. After killed animals, organs and blood were obtained from P388 mice. Organs were weighted. 10 mg of organs were digested. 10 ml of scintillation solution (which containing […]) were added to digested solution and determined at LSC. Other processes are similar to the standard method.

[3] = duration of treatment 0.5 months
[4] = duration of treatment 1.0 months
[5] = duration of treatment 2.0 months
[6] = duration of treatment 3.0 months
[7] = duration of treatment 4.0 months
[8] = duration of treatment 5.0 months

COC(=O)C[C@](O)(CCCC(C)(C)O)C(=O)O[C@@H]1C(OC)=C[C@]23CCCN2CCc2cc4c(cc2[C@H]13)OCO4 [HHT, Homoharringtonine]
Apoptosis (%) ([1]; HHT 10 ng/ml): 33.8 ± 4.8 %
Apoptosis (%) ([1]; HHT 50 ng/ml): 42.8 ± 5.2 %
Apoptosis (%) ([1]; HHT 100 ng/ml): 60.2 ± 8.9 %
Apoptosis (%) ([1]; HHT 500 ng/ml): 92.0 ± 10.8 %
Apoptosis (%) ([1]; Table 4, HHT (50 ng/ml) alone or in combination): 42.8 ± 5.2%
% Aberrant cells (mean ± SEM) (kidney cell cultures; [3]): 0.5 ± 0.1%
Aberration/100 cells, Chromosome Breaks (kidney cell cultures; [3]): 0.1 /100 cells
% Aberrant cells (mean ± SEM) (kidney cell cultures; [4]): 0.8 ± 0.2%
Aberration/100 cells, Chromosome Breaks (kidney cell cultures; [4]): 0.5 /100 cells
% Aberrant cells (mean ± SEM) (kidney cell cultures; [5]): 1.2 ± 0.4%
Aberration/100 cells, Chromosome Breaks (kidney cell cultures; [5]): 0.7 /100 cells
Aberration/100 cells, Chromosome Exchanges (kidney cell cultures; [5]): 0.1 /100 cells
% Aberrant cells (mean ± SEM) (kidney cell cultures; [6]): 1.8 ± 0.7%
Aberration/100 cells, Chromosome Breaks (kidney cell cultures; [6]): 0.9 /100 cells
% Aberrant cells (mean ± SEM) (kidney cell cultures; [7]): 2.6 ± 0.8%
Aberration/100 cells, Chromosome Breaks (kidney cell cultures; [7]): 1.2 /100 cells
Aberration/100 cells, Chromosome Exchanges (kidney cell cultures; [7]): 0.1 /100 cells
% Aberrant cells (mean ± SEM) (kidney cell cultures; [8]): 5.5 ± 0.5%
Aberration/100 cells, Chromosome Breaks (kidney cell cultures; [8]): 1.3 /100 cells
Aberration/100 cells, Chromosome Exchanges (kidney cell cultures; [8]): 0.2 /100 cells
CMP/mg organ, Bone ([2]; 1 hour): 500 CMP/mg organ
CMP/mg organ, Brain ([2]; 1 hour): 499 CMP/mg organ
CMP/mg organ, Contents of intestine ([2]; 1 hour): 3323 CMP/mg organ
CMP/mg organ, Contents of stomach ([2]; 1 hour): 6821 CMP/mg organ
CMP/mg organ, Heart ([2]; 1 hour): 1403 CMP/mg organ
CMP/mg organ, Intestine ([2]; 1 hour): 1638 CMP/mg organ
CMP/mg organ, Kidney ([2]; 1 hour): 6501 CMP/mg organ
CMP/mg organ, Liver ([2]; 1 hour): 4145 CMP/mg organ
CMP/mg organ, Lung ([2]; 1 hour): 2100 CMP/mg organ
CMP/mg organ, Spleen ([2]; 1 hour): 2828 CMP/mg organ
CMP/mg organ, Stomach ([2]; 1 hour): 1626 CMP/mg organ
CMP/mg organ, Bone ([2]; 3 hours): 560 CMP/mg organ
CMP/mg organ, Brain ([2]; 3 hours): 646 CMP/mg organ
CMP/mg organ, Contents of intestine ([2]; 3 hours): 7215 CMP/mg organ
CMP/mg organ, Contents of stomach ([2]; 3 hours): 84375 CMP/mg organ
CMP/mg organ, Heart ([2]; 3 hours): 1800 CMP/mg organ
CMP/mg organ, Intestine ([2]; 3 hours): 3288 CMP/mg organ
CMP/mg organ, Kidney ([2]; 3 hours): 3121 CMP/mg organ
CMP/mg organ, Liver ([2]; 3 hours): 6718 CMP/mg organ
CMP/mg organ, Lung ([2]; 3 hours): 2427 CMP/mg organ
CMP/mg organ, Spleen ([2]; 3 hours): 2426 CMP/mg organ
CMP/mg organ, Stomach ([2]; 3 hours): 2321 CMP/mg organ
CMP/mg organ, Bone ([2]; 6 hours): 505 CMP/mg organ
CMP/mg organ, Brain ([2]; 6 hours): 793 CMP/mg organ
CMP/mg organ, Contents of intestine ([2]; 6 hours): 6250 CMP/mg organ
CMP/mg organ, Contents of stomach ([2]; 6 hours): 100719 CMP/mg organ
CMP/mg organ, Heart ([2]; 6 hours): 1193 CMP/mg organ
CMP/mg organ, Intestine ([2]; 6 hours): 2475 CMP/mg organ
CMP/mg organ, Kidney ([2]; 6 hours): 3501 CMP/mg organ
CMP/mg organ, Liver ([2]; 6 hours): 4109 CMP/mg organ
CMP/mg organ, Lung ([2]; 6 hours): 1788 CMP/mg organ
CMP/mg organ, Spleen ([2]; 6 hours): 2198 CMP/mg organ
CMP/mg organ, Stomach ([2]; 6 hours): 3703 CMP/mg organ
CMP/mg organ, Bone ([2]; 24 hours): 480 CMP/mg organ
CMP/mg organ, Brain ([2]; 24 hours): 986 CMP/mg organ
CMP/mg organ, Contents of intestine ([2]; 24 hours): 5009 CMP/mg organ
CMP/mg organ, Contents of stomach ([2]; 24 hours): 117914 CMP/mg organ
CMP/mg organ, Heart ([2]; 24 hours): 893 CMP/mg organ
CMP/mg organ, Intestine ([2]; 24 hours): 1067 CMP/mg organ
CMP/mg organ, Kidney ([2]; 24 hours): 1065 CMP/mg organ
CMP/mg organ, Liver ([2]; 24 hours): 2175 CMP/mg organ
CMP/mg organ, Lung ([2]; 24 hours): 1312 CMP/mg organ
CMP/mg organ, Spleen ([2]; 24 hours): 2156 CMP/mg organ
CMP/mg organ, Stomach ([2]; 24 hours): 1823 CMP/mg organ
